Measured values taken from patent US9902733B2, “Furopyridines as inhibitors of protein kinases” (MASARYKOVA UNIVERZITA, priority 2014, dated 2018).

Columns and labels:
Assay type in all cases: biochemical
HIPK2(h) = target: T1, HIPK2(h) (Homo sapiens, UniProt Q9H2X6); assay: HIPK2 KinaseProfiler radiometric protein kinase assay; conditions: 10 μM ATP, 40 minutes at room temperature
T1 construct: purchased Merck Millipore (KinaseProfiler service)
Experimental: (§1) In vitro essays were performed by the company Merck Millipore in their KinaseProfiler radiometric protein kinase assay as paid commercial service. The compounds IC50 values for inhibition of individual protein kinases were determined. Dose-response curves were plotted from inhibition data generated, each in duplicate, from 10 point serial dilutions of inhibitory compounds. Concentration of compound was plotted against % kinase activity. To generate IC50 values, the dose-response curves were fitted to a standard sigmoidal curve and IC50 values were derived by standard nonlinear regression analysis.
(§2) All tested compounds were prepared in 100% DMSO to final assay concentrations either 0.5 mM (for the concentration row A, see below) or 0.05 mM (for the concentration row B). This working stock of the compound was added to the assay well as the first component in the reaction, followed by the remaining components as detailed below. The stock solution was added to the individual assay wells in such amounts that the concentrations of the compound were either in the row A (0.001 μM, 0.003 μM, 0.01 μM, 0.03 μM, 0.1 μM, 0.3 μM, 1.0 μM, 3.0 μM, and 10.0 μM) or in the row B (0.0001 μM, 0.0003 μM, 0.001 μM, 0.003 μM, 0.01 μM, 0.03 μM, 0.1 μM, 0.3 μM, and 1.0 μM). There was no pre-incubation step between the compound and the kinase prior to initiation of the reaction.
(§3) The positive control wells contained all components of the reaction, except the compound of interest; however, DMSO (at a final concentration of 2%) was included in these wells to control for solvent effects. The blank wells contained all components of the reaction, with staurosporine as a reference inhibitor replacing the compound of interest. This abolished kinase activity and established the base-line (0% kinase activity remaining).
HIPK2(h) was diluted in the buffer (20 mM MOPS, 1 mM EDTA, 0.01% Brij-35, 5% Glycerol, 0.1% β-mercaptoethanol, 1 mg/mL BSAs) to the concentration of 1.01 mg/mL prior to addition to the reaction mix.
(§4) The above stock solution of HIPK2(h) was added to a mixture containing 8 mM MOPS pH 7.0, 0.2 mM EDTA, and 0.33 mg/mL myelin basic protein in such amount that the resulting concentration of HIPK2(h) was 1.4 nM. This mixture was added to the stock solution of the tested compound. The reaction was initiated by the addition of the MgATP mix in such amount that the resulting concentration of Mg acetate in the reaction mixture was 10 mM and [γ-^33P-ATP] (specific activity approx. 500 cpm/pmol) was 10 μM. After incubation for 40 minutes at room temperature, the reaction was stopped by the addition of 3% phosphoric acid solution. 10 μL of the reaction was then spotted onto a P30 filtermat and washed three times for 5 minutes in 75 mM phosphoric acid and once in methanol prior to drying and scintillation counting.

CLK4 (h) = target: T2, CLK4 (h) (Homo sapiens, UniProt Q9HAZ1); assay: CLK4 KinaseProfiler radiometric protein kinase assay; conditions: 15 μM ATP, 40 minutes at room temperature
T2 construct: purchased Merck Millipore (KinaseProfiler service)
Experimental: as §1, §2, §3
CLK4 (h) was diluted in the buffer (20 mM MOPS, 1 mM EDTA, 0.01% Brij-35, 5% Glycerol, 0.1% β-mercaptoethanol, 1 mg/mL BSAs) to the concentration of 1.01 mg/mL prior to addition to the reaction mix.
as §4, with “solution of CLK4(h) was added” for “solution of HIPK2(h) was added”, “EDTA, and 200 μM […](p) EDEEE in such” for “EDTA, and 0.33 mg/mL myelin basic protein in such”, “concentration of CLK4(h) was 140.8” for “concentration of HIPK2(h) was 1.4”, “CLK4(h) was 140.8 nM. This” for “HIPK2(h) was 1.4 nM. This”, “cpm/pmol) was 15 μM. After” for “cpm/pmol) was 10 μM. After”

CLK2 (h) = target: T3, CLK2 (h) (Homo sapiens, UniProt P49760); assay: CLK2 KinaseProfiler radiometric protein kinase assay; conditions: radiometric, 15 μM ATP, 40 minutes at room temperature; read-out: CLK2 IC50
T3 construct: purchased Merck Millipore (KinaseProfiler service)
Experimental: as §1, §2, §3
CLK2 (h) was diluted in the buffer (20 mM MOPS (3-(N-morpholino)propanesulfonic acid), 1 mM EDTA (ethylendiaminotetraacetic acid), 0.01% Brij-35 (detergent), 5% Glycerol, 0.1% β-mercaptoethanol, 1 mg/mL BSAs) to the concentration of 1.01 mg/mL prior to addition to the reaction mix.
as §4, with “solution of CLK2(h) was added” for “solution of HIPK2(h) was added”, “EDTA, and 20 μM […](p) EDEEE in such” for “EDTA, and 0.33 mg/mL myelin basic protein in such”, “concentration of CLK2(h) was 2.1” for “concentration of HIPK2(h) was 1.4”, “CLK2(h) was 2.1 nM. This” for “HIPK2(h) was 1.4 nM. This”, “cpm/pmol) was 15 μM. After” for “cpm/pmol) was 10 μM. After”

HIPK3(h) = target: T4, HIPK3(h) (Homo sapiens, UniProt Q9H422); assay: HIPK3 KinaseProfiler radiometric protein kinase assay; conditions: 15 μM ATP, 40 minutes at room temperature
T4 construct: purchased Merck Millipore (KinaseProfiler service)
Experimental: as §1, §2, §3
HIPK3(h) was diluted in the buffer (20 mM MOPS, 1 mM EDTA, 0.01% Brij-35, 5% Glycerol, 0.1% β-mercaptoethanol, 1 mg/mL BSAs) to the concentration of 1.01 mg/mL prior to addition to the reaction mix.
(§5) The above stock solution of HIPK3(h) was added to a mixture containing 8 mM MOPS pH 7.0, 0.2 mM EDTA, and 1.0 mg/mL myelin basic protein in such amount that the resulting concentration of HIPK3(h) was 6.4 nM. This mixture was added to the stock solution of the tested compound. The reaction was initiated by the addition of the MgATP mix in such amount that the resulting concentration of Mg acetate in the reaction mixture was 10 mM and [γ-^33P-ATP] (specific activity approx. 500 cpm/pmol) was 15 μM. After incubation for 40 minutes at room temperature, the reaction was stopped by the addition of 3% phosphoric acid solution. […]

HIPK1(h) = target: T5, HIPK1(h) (Homo sapiens, UniProt Q86Z02); assay: HIPK1 KinaseProfiler radiometric protein kinase assay; conditions: 45 μM ATP, 40 minutes at room temperature
T5 construct: purchased Merck Millipore (KinaseProfiler service)
Experimental: as §1, §2, §3
HIPK1(h) was diluted in the buffer (20 mM MOPS, 1 mM EDTA, 0.01% Brij-35, 5% Glycerol, 0.1% β-mercaptoethanol, 1 mg/mL BSAs) to the concentration of 1.01 mg/mL prior to addition to the reaction mix.
as §4, with “solution of HIPK1(h) was added” for “solution of HIPK2(h) was added”, “concentration of HIPK1(h) was 4.7” for “concentration of HIPK2(h) was 1.4”, “HIPK1(h) was 4.7 nM. This” for “HIPK2(h) was 1.4 nM. This”, “cpm/pmol) was 45 μM. After” for “cpm/pmol) was 10 μM. After”

FLT3(h) = target: T6, FLT3(h) (Homo sapiens, UniProt P36888); assay: FLT3 KinaseProfiler radiometric protein kinase assay; conditions: 200 μM ATP, 40 minutes at room temperature
T6 construct: purchased Merck Millipore (KinaseProfiler service)
T6 sequence (P36888 27-993): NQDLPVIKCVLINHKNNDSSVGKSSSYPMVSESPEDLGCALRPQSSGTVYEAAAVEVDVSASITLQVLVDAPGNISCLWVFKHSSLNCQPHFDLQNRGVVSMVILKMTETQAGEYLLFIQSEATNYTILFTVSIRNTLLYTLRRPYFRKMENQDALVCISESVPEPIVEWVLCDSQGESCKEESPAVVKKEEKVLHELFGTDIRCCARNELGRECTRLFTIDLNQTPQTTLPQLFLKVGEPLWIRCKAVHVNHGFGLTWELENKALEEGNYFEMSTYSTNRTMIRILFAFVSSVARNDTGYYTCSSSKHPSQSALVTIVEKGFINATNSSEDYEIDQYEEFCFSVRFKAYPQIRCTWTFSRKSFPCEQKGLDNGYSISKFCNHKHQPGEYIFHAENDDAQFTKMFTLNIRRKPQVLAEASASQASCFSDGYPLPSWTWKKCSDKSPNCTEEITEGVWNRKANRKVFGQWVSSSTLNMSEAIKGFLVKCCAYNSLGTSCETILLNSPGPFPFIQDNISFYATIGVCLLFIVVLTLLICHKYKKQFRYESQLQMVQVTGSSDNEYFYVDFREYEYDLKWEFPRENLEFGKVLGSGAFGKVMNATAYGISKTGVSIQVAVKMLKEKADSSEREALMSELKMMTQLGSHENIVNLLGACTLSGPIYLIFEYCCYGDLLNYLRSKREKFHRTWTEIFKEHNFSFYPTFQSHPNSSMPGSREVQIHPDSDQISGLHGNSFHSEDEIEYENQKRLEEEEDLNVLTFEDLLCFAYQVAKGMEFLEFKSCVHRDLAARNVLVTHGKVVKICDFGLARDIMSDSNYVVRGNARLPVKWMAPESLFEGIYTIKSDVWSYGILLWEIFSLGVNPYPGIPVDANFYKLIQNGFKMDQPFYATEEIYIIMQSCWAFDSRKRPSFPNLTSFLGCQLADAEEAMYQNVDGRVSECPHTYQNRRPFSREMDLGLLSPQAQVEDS
Experimental: as §1, §2, §3
FLT3(h) was diluted in the buffer (20 mM MOPS, 1 mM EDTA, 0.01% Brij-35, 5% Glycerol, 0.1% β-mercaptoethanol, 1 mg/mL BSAs) to the concentration of 1.01 mg/mL prior to addition to the reaction mix.
as §4, with “solution of Flt3(h) was added” for “solution of HIPK2(h) was added”, “EDTA, and 50 μM EAIYAAPFAKKK, in such” for “EDTA, and 0.33 mg/mL myelin basic protein in such”, “concentration of FLT3(h) was 28.3” for “concentration of HIPK2(h) was 1.4”, “FLT3(h) was 28.3 nM. This” for “HIPK2(h) was 1.4 nM. This”, “cpm/pmol) was 200 μM. After” for “cpm/pmol) was 10 μM. After”

TRKA(h) = target: T7, TRKA(h) (Homo sapiens, UniProt P04629); assay: TRKA KinaseProfiler radiometric protein kinase assay; conditions: 120 μM ATP, 40 minutes at room temperature
T7 construct: purchased Merck Millipore (KinaseProfiler service)
Experimental: as §1, §2, §3
TRKA(h) was diluted in the buffer (20 mM MOPS, 1 mM EDTA, 0.01% Brij-35, 5% Glycerol, 0.1% β-mercaptoethanol, 1 mg/mL BSAs) to the concentration of 1.01 mg/mL prior to addition to the reaction mix.
as §5, with “TRKA(h)” for “HIPK3(h)”, “250 μM KKKSPGEYVNIEFG,” for “1.0 mg/mL myelin basic protein”, “28.2” for “6.4”, “120” for “15”

T2 sequence (Q9HAZ1 whole entry): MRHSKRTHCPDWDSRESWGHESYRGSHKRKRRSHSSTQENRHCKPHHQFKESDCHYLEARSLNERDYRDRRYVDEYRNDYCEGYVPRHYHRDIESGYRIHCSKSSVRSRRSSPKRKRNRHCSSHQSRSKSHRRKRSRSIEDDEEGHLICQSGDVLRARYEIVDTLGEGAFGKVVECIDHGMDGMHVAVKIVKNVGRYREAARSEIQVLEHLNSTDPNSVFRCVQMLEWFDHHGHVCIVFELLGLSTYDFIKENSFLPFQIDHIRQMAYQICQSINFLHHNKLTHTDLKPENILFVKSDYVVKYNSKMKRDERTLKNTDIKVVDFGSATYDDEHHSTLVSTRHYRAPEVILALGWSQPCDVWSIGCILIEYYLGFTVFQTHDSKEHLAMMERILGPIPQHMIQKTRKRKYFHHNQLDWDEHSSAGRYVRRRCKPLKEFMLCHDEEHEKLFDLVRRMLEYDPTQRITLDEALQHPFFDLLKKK
T7 sequence (P04629 33-796): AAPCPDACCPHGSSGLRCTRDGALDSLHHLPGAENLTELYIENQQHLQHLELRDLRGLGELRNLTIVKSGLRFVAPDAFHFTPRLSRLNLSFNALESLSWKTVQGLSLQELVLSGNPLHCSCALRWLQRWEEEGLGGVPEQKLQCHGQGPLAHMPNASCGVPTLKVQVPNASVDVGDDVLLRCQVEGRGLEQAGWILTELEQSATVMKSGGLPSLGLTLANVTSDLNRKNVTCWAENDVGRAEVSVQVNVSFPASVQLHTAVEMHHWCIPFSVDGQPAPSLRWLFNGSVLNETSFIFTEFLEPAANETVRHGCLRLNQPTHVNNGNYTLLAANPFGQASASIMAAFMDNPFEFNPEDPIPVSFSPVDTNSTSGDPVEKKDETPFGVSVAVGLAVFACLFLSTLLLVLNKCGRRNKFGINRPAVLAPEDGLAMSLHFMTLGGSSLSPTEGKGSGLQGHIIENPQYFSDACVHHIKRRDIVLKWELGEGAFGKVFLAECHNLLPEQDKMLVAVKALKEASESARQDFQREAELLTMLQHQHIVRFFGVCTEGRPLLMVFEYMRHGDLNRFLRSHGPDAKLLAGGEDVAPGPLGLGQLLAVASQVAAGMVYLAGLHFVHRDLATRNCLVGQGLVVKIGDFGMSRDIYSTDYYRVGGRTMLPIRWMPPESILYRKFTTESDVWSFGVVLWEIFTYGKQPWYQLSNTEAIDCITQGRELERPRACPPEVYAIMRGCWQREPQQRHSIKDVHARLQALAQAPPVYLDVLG
T3 sequence (P49760 whole entry): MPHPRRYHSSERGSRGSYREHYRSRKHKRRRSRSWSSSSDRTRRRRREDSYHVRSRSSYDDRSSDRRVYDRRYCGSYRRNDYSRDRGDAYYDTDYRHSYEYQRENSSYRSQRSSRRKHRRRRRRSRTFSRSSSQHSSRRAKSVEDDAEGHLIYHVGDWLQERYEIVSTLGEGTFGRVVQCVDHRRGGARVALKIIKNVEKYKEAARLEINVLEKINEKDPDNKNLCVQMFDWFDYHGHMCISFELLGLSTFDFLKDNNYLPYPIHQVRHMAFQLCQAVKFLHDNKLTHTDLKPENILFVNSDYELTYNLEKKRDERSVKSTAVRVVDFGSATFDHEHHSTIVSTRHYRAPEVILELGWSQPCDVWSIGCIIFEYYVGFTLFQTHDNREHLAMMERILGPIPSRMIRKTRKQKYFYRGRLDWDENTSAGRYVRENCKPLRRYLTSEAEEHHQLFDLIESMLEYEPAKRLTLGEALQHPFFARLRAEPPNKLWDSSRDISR
T4 sequence (Q9H422 whole entry): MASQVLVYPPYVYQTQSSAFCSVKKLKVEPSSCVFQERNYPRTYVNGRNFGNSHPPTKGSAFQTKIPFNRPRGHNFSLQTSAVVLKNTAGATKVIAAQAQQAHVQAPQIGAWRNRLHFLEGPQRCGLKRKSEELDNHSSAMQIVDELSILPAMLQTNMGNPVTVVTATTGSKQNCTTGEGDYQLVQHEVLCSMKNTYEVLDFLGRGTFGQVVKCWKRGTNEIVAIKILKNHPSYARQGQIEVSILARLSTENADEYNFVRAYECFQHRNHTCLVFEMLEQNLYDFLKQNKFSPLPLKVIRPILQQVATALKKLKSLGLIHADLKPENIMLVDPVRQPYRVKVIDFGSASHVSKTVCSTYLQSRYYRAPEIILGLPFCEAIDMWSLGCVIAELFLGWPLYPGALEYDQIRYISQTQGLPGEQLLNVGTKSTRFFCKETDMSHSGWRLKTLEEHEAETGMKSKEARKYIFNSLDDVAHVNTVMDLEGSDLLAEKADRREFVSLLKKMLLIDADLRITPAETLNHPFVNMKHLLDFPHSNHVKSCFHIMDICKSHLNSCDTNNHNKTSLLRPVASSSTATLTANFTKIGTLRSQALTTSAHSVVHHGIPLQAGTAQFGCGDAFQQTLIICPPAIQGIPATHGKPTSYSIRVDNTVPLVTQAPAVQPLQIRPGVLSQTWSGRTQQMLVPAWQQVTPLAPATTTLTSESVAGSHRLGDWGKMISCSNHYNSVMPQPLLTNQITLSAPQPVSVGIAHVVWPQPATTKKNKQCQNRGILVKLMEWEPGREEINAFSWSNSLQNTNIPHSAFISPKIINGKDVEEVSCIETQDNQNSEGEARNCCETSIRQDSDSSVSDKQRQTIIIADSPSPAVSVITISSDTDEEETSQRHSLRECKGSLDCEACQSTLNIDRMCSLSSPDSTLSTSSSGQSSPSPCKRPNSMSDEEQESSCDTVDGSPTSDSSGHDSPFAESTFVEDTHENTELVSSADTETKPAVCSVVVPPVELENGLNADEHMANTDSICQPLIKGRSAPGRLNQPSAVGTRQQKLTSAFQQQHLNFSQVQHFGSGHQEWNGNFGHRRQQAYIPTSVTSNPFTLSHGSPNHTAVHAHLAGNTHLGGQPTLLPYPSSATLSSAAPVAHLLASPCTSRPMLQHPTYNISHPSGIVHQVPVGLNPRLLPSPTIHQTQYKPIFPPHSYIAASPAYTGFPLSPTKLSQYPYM
T5 sequence (Q86Z02 whole entry): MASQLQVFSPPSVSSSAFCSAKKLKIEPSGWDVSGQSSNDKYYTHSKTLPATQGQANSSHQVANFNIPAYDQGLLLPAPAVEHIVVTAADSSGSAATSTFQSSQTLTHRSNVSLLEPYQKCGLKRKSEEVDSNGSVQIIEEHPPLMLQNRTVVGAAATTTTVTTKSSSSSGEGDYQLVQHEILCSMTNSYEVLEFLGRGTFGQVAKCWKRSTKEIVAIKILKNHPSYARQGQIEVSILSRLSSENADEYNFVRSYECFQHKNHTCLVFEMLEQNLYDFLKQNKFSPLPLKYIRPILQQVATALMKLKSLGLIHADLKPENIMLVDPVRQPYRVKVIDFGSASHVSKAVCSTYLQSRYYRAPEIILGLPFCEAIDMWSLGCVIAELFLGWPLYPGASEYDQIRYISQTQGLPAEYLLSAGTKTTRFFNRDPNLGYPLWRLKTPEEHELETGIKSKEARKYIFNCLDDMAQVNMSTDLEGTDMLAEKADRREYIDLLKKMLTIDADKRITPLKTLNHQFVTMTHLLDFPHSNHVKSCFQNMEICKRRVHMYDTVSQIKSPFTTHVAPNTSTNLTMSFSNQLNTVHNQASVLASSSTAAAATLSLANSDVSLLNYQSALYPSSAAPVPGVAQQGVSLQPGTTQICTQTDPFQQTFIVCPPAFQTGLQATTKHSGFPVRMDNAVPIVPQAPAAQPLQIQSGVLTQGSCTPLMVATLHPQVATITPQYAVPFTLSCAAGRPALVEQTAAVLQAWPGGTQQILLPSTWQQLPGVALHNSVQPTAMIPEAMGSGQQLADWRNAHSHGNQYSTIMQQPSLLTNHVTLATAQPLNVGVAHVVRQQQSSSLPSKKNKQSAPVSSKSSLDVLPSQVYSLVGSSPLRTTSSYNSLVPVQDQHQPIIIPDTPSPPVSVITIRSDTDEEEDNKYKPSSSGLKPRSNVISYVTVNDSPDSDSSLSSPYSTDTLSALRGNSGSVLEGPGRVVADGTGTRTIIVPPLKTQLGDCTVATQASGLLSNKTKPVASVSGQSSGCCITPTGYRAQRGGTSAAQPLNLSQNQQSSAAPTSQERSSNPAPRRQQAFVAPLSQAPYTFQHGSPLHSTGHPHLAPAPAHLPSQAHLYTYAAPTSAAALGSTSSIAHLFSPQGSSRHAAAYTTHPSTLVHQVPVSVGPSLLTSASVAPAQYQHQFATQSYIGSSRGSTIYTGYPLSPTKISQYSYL

Cc1n[nH]c(C)c1-c1ccc2occ(-c3ccc4ccccc4c3)c2n1 [Preparative Example 7D]
IC50 (HIPK2(h)): < 1 µM | IC50 (CLK4 (h)): < 5 µM | IC50 (CLK2 (h)): < 5 µM | IC50 (HIPK3(h)): < 5 µM | IC50 (HIPK1(h)): < 5 µM

Cn1cc(-c2ccc3occ(-c4ccc5ccccc5c4)c3n2)cn1 [Preparative Example 7A]
IC50 (HIPK2(h)): < 1 µM | IC50 (CLK4 (h)): < 0.1 µM | IC50 (CLK2 (h)): < 0.1 µM | IC50 (HIPK3(h)): < 1 µM | IC50 (HIPK1(h)): < 1 µM

CN1CCN(c2ccc(Nc3ccc4occ(-c5ccccc5)c4n3)cc2)CC1 [Preparative Example 8C]
IC50 (FLT3(h)): < 5 µM | IC50 (TRKA(h)): < 5 µM | IC50 (CLK4 (h)): < 5 µM

c1ccc(-c2coc3ccc(Nc4ccc(N5CCOCC5)cc4)nc23)cc1 [Preparative Example 8B]
IC50 (FLT3(h)): < 1 µM | IC50 (TRKA(h)): < 5 µM | IC50 (CLK2 (h)): < 1 µM

c1ccc(-c2coc3ccc(Nc4ccncc4)nc23)cc1 [Preparative Example 8D]
IC50 (FLT3(h)): < 5 µM

c1ccc(Nc2ccc3occ(-c4ccccc4)c3n2)cc1 [Preparative Example 8E]
IC50 (FLT3(h)): < 5 µM | IC50 (TRKA(h)): < 5 µM | IC50 (CLK4 (h)): < 5 µM

Cc1cc(Nc2cc(-c3ccccc3)nc3ccoc23)sn1 [Preparative Example 17E]
IC50 (FLT3(h)): < 5 µM | IC50 (TRKA(h)): < 5 µM
